According to patent US9670227B2, “Thienopyrimidine derivatives, a process for their preparation and pharmaceutical compositions containing them” (LES LABORATOIRES SERVIER, priority 2013, dated 2017):
Where two headings read alike, the source gives them in different places.

Legend:
Mcl-1 protein = Mcl-1 protein (UniProtKB primary accession number: Q07820) (Homo sapiens, UniProt Q07820); test: Inhibition of Mcl-1 by fluorescence polarisation, Method 1; type: binding; details: read-out: IC50 (M) Mcl-1 FP
Chain of Mcl-1 protein (Q07820 whole entry): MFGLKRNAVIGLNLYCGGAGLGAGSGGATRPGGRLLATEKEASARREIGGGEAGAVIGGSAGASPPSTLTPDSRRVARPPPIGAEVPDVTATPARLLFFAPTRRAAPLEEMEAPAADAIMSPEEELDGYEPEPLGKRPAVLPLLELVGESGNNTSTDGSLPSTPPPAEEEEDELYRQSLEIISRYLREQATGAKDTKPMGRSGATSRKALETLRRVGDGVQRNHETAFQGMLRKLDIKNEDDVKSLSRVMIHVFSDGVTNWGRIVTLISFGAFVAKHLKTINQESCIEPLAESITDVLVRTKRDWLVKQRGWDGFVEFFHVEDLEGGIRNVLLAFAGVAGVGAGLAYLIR
Summary of the method: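 Compounds were tested as 11-point serial dilutions at 5% final DMSO against 5 nM Mcl-1 with 1 nM fluorescein-labelled ligand in 10 mM HEPES, 150 mM NaCl, 0.05% Tween 20, pH 7.4. Relative binding potency was read by fluorescence polarisation.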

[1] = test system: H929 multiple myeloma tumour line; test: In vitro cytotoxicity, Microculture Tetrazolium Assay; type: cell-based; details: Homo sapiens, NCI-H929, 48 h, H929 cells, 48 hours exposure, MTT; read-out: IC50 (μM) MTT H929
Protocol: The cytotoxicity studies were carried out on the H929 multiple myeloma tumour line.
The cells are distributed onto microplates and exposed to the test compounds for 48 hours.

[2] = fluorescence polarisation test, Method 2 values are underlined in the patent (underlining not visible here)
[3] = fluorescence polarisation, Method 1, or Method 2

Structure (SMILES) | IC50 (Mcl-1 protein; [2]) [M] | IC50 [1] [µM] | IC50 (Mcl-1 protein; [3]) [M]
Cc1c(-c2c(-c3ccco3)sc3ncnc(OC(Cc4ccccc4OC(F)F)C(=O)O)c23)ccc(OCCN2CCN(C)CC2)c1Cl [Example 338, (2R)-2-{[(5Sa)-5-{3-chloro-2-methyl-4-[2-(4-methylpiperazin-1-yl)ethoxy]phenyl}-6-(furan-2-yl)thieno[2,3-d]pyrimidin-4-yl]oxy}-3-[2-(difluoromethoxy)phenyl]propanoic acid] | 3e-08 | 1.04 | –
CCCn1nccc1COc1ccccc1CC(Oc1ncnc2sc(-c3ccc(F)c(OC)c3)c(-c3ccc(OCCN4CCN(C)CC4)c(Cl)c3C)c12)C(=O)O [Example 385, (2R)-2-{[(5Sa)-5-{3-chloro-2-methyl-4-[2-(4-methylpiperazin-1-yl)ethoxy]phenyl}-6-(4-fluoro-3-methoxyphenyl)thieno[2,3-d]pyrimidin-4-yl]oxy}-3-{2-[(1-propyl-1H-pyrazol-5-yl)methoxy]phenyl}propanoic acid] | 3.5e-09 | 0.048 | –
Cc1c(-c2c(-c3ccc(F)o3)sc3ncnc(OC(Cc4ccccc4OCC(F)(F)F)C(=O)O)c23)ccc(OCCN(C)C)c1Cl [Example 200, (2R)-2-{[(5Sa)-5-{3-chloro-4-[2-(dimethylamino)ethoxy]-2-methylphenyl}-6-(5-fluorofuran-2-yl)thieno[2,3-d]pyrimidin-4-yl]oxy}-3-[2-(2,2,2-trifluoroethoxy)phenyl]propanoic acid] | 6.1e-09 | 0.106 | –
Cc1c(-c2c(-c3ccc(F)o3)sc3ncnc(OC(Cc4ccccc4OCc4cnccn4)C(=O)O)c23)ccc(OCCN(C)C)c1Cl [Example 206, (2R)-2-{[(5Sa)-5-{3-chloro-4-[2-(dimethylamino)ethoxy]-2-methylphenyl}-6-(5-fluorofuran-2-yl)thieno[2,3-d]pyrimidin-4-yl]oxy}-3-[2-(pyrazin-2-ylmethoxy)phenyl]propanoic acid] | 8e-09 | 0.135 | –
COc1cc(-c2sc3ncnc(OC(Cc4ccccc4OCC(F)(F)F)C(=O)O)c3c2-c2ccc(OCCN3CCN(C)CC3)c(Cl)c2C)ccc1F [Example 380, (2R)-2-{[(5Sa)-5-{3-chloro-2-methyl-4-[2-(4-methylpiperazin-1-yl)ethoxy]phenyl}-6-(4-fluoro-3-methoxyphenyl)thieno[2,3-d]pyrimidin-4-yl]oxy}-3-[2-(2,2,2-trifluoroethoxy)phenyl]propanoic acid] | 1.1e-08 | 0.162 | –
Cc1c(-c2c(-c3ccco3)sc3ncnc(OC(Cc4ccccc4OCc4cnc(Cl)cn4)C(=O)O)c23)ccc(OCCN2CCN(C)CC2)c1Cl [Example 269, (2R)-2-{[(5Sa)-5-{3-chloro-2-methyl-4-[2-(4-methylpiperazin-1-yl)ethoxy]phenyl}-6-(furan-2-yl)thieno[2,3-d]pyrimidin-4-yl]oxy}-3-{2-[(5-chloropyrazin-2-yl)methoxy]phenyl}propanoic acid] | 1.1e-08 | 0.069 | –
Cc1c(-c2c(-c3ccc(F)cc3)sc3ncnc(OC(Cc4ccccc4OCC4CCCO4)C(=O)O)c23)ccc(OCC2CCN(C)C2)c1Cl [Example 649, (2R)-2-{[(5Sa)-5-{3-chloro-2-methyl-4-[(1-methylpyrrolidin-3-yl)methoxy]phenyl}-6-(4-fluorophenyl)thieno[2,3-d]pyrimidin-4-yl]oxy}-3-{2-[(2R)-tetrahydrofuran-2-ylmethoxy]phenyl}propanoic acid] | – | 0.341 | 2.3e-08
CCOCCn1nccc1COc1ccccc1CC(Oc1ncnc2sc(-c3ccc(F)cc3)c(-c3ccc(OCCN4CCN(C)CC4)c(Cl)c3C)c12)C(=O)O [Example 89, (2R)-2-{[(5Sa)-5-{3-chloro-2-methyl-4-[2-(4-methylpiperazin-1-yl)ethoxy]phenyl}-6-(4-fluorophenyl)thieno[2,3-d]pyrimidin-4-yl]oxy}-3-(2-{[1-(2-ethoxyethyl)-1H-pyrazol-5-yl]methoxy}phenyl)propanoic acid] | 6.5e-09 | 0.027 | –
COc1ccccc1-c1nccc(COc2ccccc2CC(Oc2ncnc3sc(-c4ccc(OCc5ccsc5)cc4)c(-c4ccc(OCCN5CCN(C)CC5)c(Cl)c4C)c23)C(=O)O)n1 [Example 778, (2R)-2-[((5Sa)-5-{3-chloro-2-methyl-4-[2-(4-methylpiperazin-1-yl)ethoxy]phenyl}-6-[4-(thiophen-3-ylmethoxy)phenyl]thieno[2,3-d]pyrimidin-4-yl)oxy]-3-(2-{[2-(2-methoxyphenyl)pyrimidin-4-yl]methoxy}phenyl)propanoic acid] | – | 0.013 | 1.09e-09
Cc1nccc(COc2ccccc2CC(Oc2ncnc3sc(-c4ccco4)c(-c4ccc(OCCN5CCN(C)CC5)c(Cl)c4C)c23)C(=O)O)n1 [Example 247, (2R)-2-{[(5Sa)-5-{3-chloro-2-methyl-4-[2-(4-methylpiperazin-1-yl)ethoxy]phenyl}-6-(furan-2-yl)thieno[2,3-d]pyrimidin-4-yl]oxy}-3-{2-[(2-methylpyrimidin-4-yl)methoxy]phenyl}propanoic acid] | 8e-09 | 0.022 | –
COc1nccc(COc2ccccc2CC(Oc2ncnc3sc(-c4ccc(F)c(OC)c4)c(-c4ccc(OCCN5CCN(C)CC5)c(Cl)c4C)c23)C(=O)O)n1 [Example 383, (2R)-2-{[(5Sa)-5-{3-chloro-2-methyl-4-[2-(4-methylpiperazin-1-yl)ethoxy]phenyl}-6-(4-fluoro-3-methoxyphenyl)thieno[2,3-d]pyrimidin-4-yl]oxy}-3-{2-[(2-methoxypyrimidin-4-yl)methoxy]phenyl}propanoic acid] | 5.6e-09 | 0.03 | –
COc1cccc(COc2ccccc2CC(Oc2ncnc3sc(-c4ccco4)c(-c4ccc(OCCN5CCN(C)CC5)c(Cl)c4C)c23)C(=O)O)n1 [Example 238, (2R)-2-{[(5Sa)-5-{3-chloro-2-methyl-4-[2-(4-methylpiperazin-1-yl)ethoxy]phenyl}-6-(furan-2-yl)thieno[2,3-d]pyrimidin-4-yl]oxy}-3-{2-[(6-methoxypyridin-2-yl)methoxy]phenyl}propanoic acid] | 5.9e-09 | 0.077 | –
COc1ccccc1CC(Oc1ncnc2sc(-c3ccco3)c(-c3ccc(OC4CN5CCC4CC5)c(Cl)c3C)c12)C(=O)O (single isomer, unassigned) [Example 307, (2R)-2-({(5Sa)-5-[4-((3S or R)-1-azabicyclo[2.2.2]oct-3-yloxy)-3-chloro-2-methylphenyl]-6-(furan-2-yl)thieno[2,3-d]pyrimidin-4-yl}oxy)-3-(2-methoxyphenyl)propanoic acid] | 8.3e-09 | 0.998 | –
Cc1c(-c2c(-c3ccc(F)cc3)sc3ncnc(OC(Cc4ccccc4OCc4ccnc(OCc5cncn5C)n4)C(=O)O)c23)ccc(OCCN2CCN(C)CC2)c1Cl [Example 60, (2R)-2-{[(5Sa)-5-{3-chloro-2-methyl-4-[2-(4-methylpiperazin-1-yl)ethoxy]phenyl}-6-(4-fluorophenyl)thieno[2,3-d]pyrimidin-4-yl]oxy}-3-[2-({2-[(1-methyl-1H-imidazol-5-yl)methoxy]pyrimidin-4-yl}methoxy)phenyl]propanoic acid] | 2.4e-09 | 0.17 | –
Cc1c(-c2c(-c3ccco3)sc3ncnc(OC(Cc4ccccc4OCc4cn(C)cn4)C(=O)O)c23)ccc(OCCN2CCN(C)CC2)c1Cl [Example 267, (2R)-2-{[(5Sa)-5-{3-chloro-2-methyl-4-[2-(4-methylpiperazin-1-yl)ethoxy]phenyl}-6-(furan-2-yl)thieno[2,3-d]pyrimidin-4-yl]oxy}-3-{2-[(1-methyl-1H-imidazol-4-yl)methoxy]phenyl}propanoic acid] | 8.8e-09 | 1.6 | –
